# In ChEMBL document CHEMBL4715696, “In vitro synergistic anticancer activity of the combination of T-type calcium channel blocker and chemotherapeutic agent in A549 cells” (Bioorg Med Chem Lett, 2016):
# Key:
# [1] = system: A549; assay: Cytotoxicity against human A549 cells assessed as reduction in cell viability by MTT assay; format: functional, cell-based
# [2] = system: A549; assay: Induction of cell cycle arrest in human A549 cells assessed as accumulation at S phase at 5 uM after 48 hrs by flow cytometric analysis (reference value: 10.4 to 12%); format: functional
# [3] = system: A549; assay: Decrease in cell cycle associated protein expression in human A549 cells assessed as reduction in CDK2 expression at 10 uM by Western blot analysis; format: functional, cell-based; settings: time 6-48 hrs, TDE = time-dependent effect
# [4] = system: A549; assay: Decrease in cell cycle associated protein expression in human A549 cells assessed as reduction in CDK4 expression after 48 hrs by Western blot analysis; format: functional, cell-based; settings: dose 2.5-10 µM
# [5] = system: A549; assay: Decrease in cell cycle associated protein expression in human A549 cells assessed as fold change in CDK4 expression at 5 uM after 48 hrs by Western blot analysis (reference value: 0.62); format: functional
# [6] = system: A549; assay: Decrease in cell cycle associated protein expression in human A549 cells assessed as fold change in CDK4 expression at 10 uM after 36 hrs by Western blot analysis (reference value: 0.87); format: functional
# [7] = system: A549; assay: Decrease in cell cycle associated protein expression in human A549 cells assessed as fold change in CDK6 expression at 5 uM after 48 hrs by Western blot analysis (reference value: 1.05); format: functional
# [8] = system: A549; assay: Decrease in cell cycle associated protein expression in human A549 cells assessed as fold change in CDK6 expression at 10 uM after 6 hrs by Western blot analysis (reference value: 0.7); format: functional
# [9] = system: A549; assay: Decrease in cell cycle associated protein expression in human A549 cells assessed as fold change in cyclin D1 expression at 2.5 uM after 48 hrs by Western blot analysis (reference value: 0.39); format: functional
# [10] = system: A549; assay: Decrease in cell cycle associated protein expression in human A549 cells assessed as fold change in cyclin D1 expression at 10 uM after 48 hrs by Western blot analysis (reference value: 0.39 to 0.68); format: functional
# [11] = system: A549; assay: Decrease in cell cycle associated protein expression in human A549 cells assessed as fold change in cyclin D1 expression at 10 uM after 12 hrs by Western blot analysis (reference value: 0.68); format: functional
# [12] = system: A549; assay: Decrease in cell cycle associated protein expression in human A549 cells assessed as reduction in cyclin D2 expression after 48 hrs by Western blot analysis; format: functional, cell-based; settings: dose 2.5-10 µM
# [13] = system: A549; assay: Decrease in cell cycle associated protein expression in human A549 cells assessed as fold change in cyclin D2 expression at 2.5 uM after 48 hrs by Western blot analysis (reference value: 0.46); format: functional
# [14] = system: A549; assay: Decrease in cell cycle associated protein expression in human A549 cells assessed as fold change in cyclin D2 expression at 10 uM after 48 hrs by Western blot analysis (reference value: 0.46 to 0.77); format: functional
# [15] = system: A549; assay: Decrease in cell cycle associated protein expression in human A549 cells assessed as fold change in cyclin D2 expression at 10 uM after 6 hrs by Western blot analysis (reference value: 0.77); format: functional
# [16] = system: A549; assay: Decrease in cell cycle associated protein expression in human A549 cells assessed as fold change in cyclin D2 expression at 10 uM after 36 hrs by Western blot analysis (reference value: 0.77); format: functional
# [17] = system: A549; assay: Decrease in cell cycle associated protein expression in human A549 cells assessed as fold change in cyclin D3 expression at 5 uM after 48 hrs by Western blot analysis (reference value: 0.73); format: functional
# [18] = system: A549; assay: Decrease in cell cycle associated protein expression in human A549 cells assessed as reduction in cyclin E expression after 48 hrs by Western blot analysis; format: functional, cell-based; settings: dose 2.5-10 µM
# [19] = system: A549; assay: Decrease in cell cycle associated protein expression in human A549 cells assessed as fold change in cyclin E expression at 10 uM after 6 hrs by Western blot analysis (reference value: 0.55); format: functional
# [20] = system: A549; assay: Decrease in cell cycle associated protein expression in human A549 cells assessed as fold change in cyclin E expression at 10 uM after 36 hrs by Western blot analysis (reference value: 0.55); format: functional
# [21] = system: A549; assay: Upregulation of p27KIP1 protein expression in human A549 cells after 48 hrs by Western blot analysis; format: functional, cell-based; settings: dose 2.5-10 µM
# [22] = Upregulation of p27KIP1 protein expression in human A549 cells assessed as fold change in expression at 2.5 uM after 48 hrs by Western blot analysis (reference value: 0.48); format: functional
# [23] = Metabolic stability in human liver microsomes assessed as parent compound remaining at 1 uM measured for 30 mins; format: ADME, Microsome; settings: read-out: Stabilty
# [24] = Metabolic stability in mouse liver microsomes assessed as parent compound remaining at 1 uM measured for 30 mins; format: ADME, Microsome; settings: read-out: Stabilty
# [25] = biological target: CYP2C9 (Homo sapiens, UniProt P11712); assay: Inhibition of human CYP2C9 assessed as residual activity at 10 uM measured after 15 mins relative to control; format: ADME; settings: read-out: Activity
# [26] = biological target: CYP2D6 (Homo sapiens, UniProt P10635); assay: Inhibition of human CYP2D6 assessed as residual activity at 10 uM measured after 15 mins relative to control; format: ADME; settings: read-out: Activity
# [27] = biological target: CYP3A4 (Homo sapiens, UniProt P08684); assay: Inhibition of human CYP3A4 assessed as residual activity at 10 uM measured after 15 mins relative to control; format: ADME; settings: read-out: Activity
# [28] = Metabolic stability in human plasma assessed as parent compound remaining at 10 uM measured after 30 mins; format: ADME, cell-free; settings: read-out: Stabilty
# [29] = Metabolic stability in human plasma assessed as parent compound remaining at 10 uM measured after 1 hr; format: ADME, cell-free; settings: read-out: Stabilty
# [30] = Metabolic stability in rat plasma assessed as parent compound remaining at 10 uM measured after 1 hr; format: ADME, cell-free; settings: read-out: Stabilty
# [31] = system: A549; assay: Potentiation of etoposide-induced cell cycle arrest in human A549 cells assessed as accumulation at sub G1 phase at 5 uM in presence of etoposide after 48 hrs by flow cytometric analysis (Rvb =33 %); format: functional
# [32] = system: A549; assay: Potentiation of cisplatin-induced cell cycle arrest in human A549 cells assessed as accumulation at sub G1 phase at 10 uM in presence of cisplatin after 48 hrs by flow cytometric analysis (reference value: 17%); format: functional
# [33] = system: A549; assay: Induction of cell cycle arrest in human A549 cells assessed as accumulation at G1 phase at 2.5 uM after 48 hrs by flow cytometric analysis (Rvb =65.5%); format: functional
# [34] = system: A549; assay: Induction of cell cycle arrest in human A549 cells assessed as accumulation at G2/M phase at 2.5 uM after 48 hrs by flow cytometric analysis (Rvb =22.1%); format: functional
# [35] = system: A549; assay: Potentiation of cisplatin-induced cell cycle arrest in human A549 cells assessed as accumulation at G2/M phase at 10 uM in presence of cisplatin after 48 hrs by flow cytometric analysis (Rvb =52.9%); format: functional
# [36] = system: A549; assay: Induction of cell cycle arrest in human A549 cells assessed as accumulation at G2/M phase at 10 uM after 48 hrs by flow cytometric analysis (reference value: 22.1%); format: functional
# [37] = system: A549; assay: Induction of cell cycle arrest in human A549 cells assessed as decrease in cell accumulation at G2/M phase after 48 hrs by flow cytometric analysis; format: functional, cell-based; settings: dose 2.5-10 µM
# [38] = system: A549; assay: Induction of apoptosis in human A549 cells assessed as early apoptotic cells at 10 uM incubated for 48 hrs by AnnexinV-FITC/propidium iodide staining based flow cytometry (reference value: 1.2%); format: functional
# CYP2D6, sequence (P10635 whole entry): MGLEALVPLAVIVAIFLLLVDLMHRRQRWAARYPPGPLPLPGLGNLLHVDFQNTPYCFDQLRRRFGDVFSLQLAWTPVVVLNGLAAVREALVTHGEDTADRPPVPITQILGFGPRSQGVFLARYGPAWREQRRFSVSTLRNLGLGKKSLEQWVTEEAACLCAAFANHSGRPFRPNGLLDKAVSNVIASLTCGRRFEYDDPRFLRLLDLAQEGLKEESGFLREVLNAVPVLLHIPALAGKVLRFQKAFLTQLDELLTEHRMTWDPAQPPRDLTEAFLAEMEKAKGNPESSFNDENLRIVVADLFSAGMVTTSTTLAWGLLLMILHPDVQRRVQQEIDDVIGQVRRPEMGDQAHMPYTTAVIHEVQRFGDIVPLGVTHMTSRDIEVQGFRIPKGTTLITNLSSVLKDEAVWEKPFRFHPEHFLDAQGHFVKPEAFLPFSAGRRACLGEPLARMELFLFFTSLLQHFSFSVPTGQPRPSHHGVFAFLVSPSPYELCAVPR
# CYP3A4, sequence (P08684 whole entry): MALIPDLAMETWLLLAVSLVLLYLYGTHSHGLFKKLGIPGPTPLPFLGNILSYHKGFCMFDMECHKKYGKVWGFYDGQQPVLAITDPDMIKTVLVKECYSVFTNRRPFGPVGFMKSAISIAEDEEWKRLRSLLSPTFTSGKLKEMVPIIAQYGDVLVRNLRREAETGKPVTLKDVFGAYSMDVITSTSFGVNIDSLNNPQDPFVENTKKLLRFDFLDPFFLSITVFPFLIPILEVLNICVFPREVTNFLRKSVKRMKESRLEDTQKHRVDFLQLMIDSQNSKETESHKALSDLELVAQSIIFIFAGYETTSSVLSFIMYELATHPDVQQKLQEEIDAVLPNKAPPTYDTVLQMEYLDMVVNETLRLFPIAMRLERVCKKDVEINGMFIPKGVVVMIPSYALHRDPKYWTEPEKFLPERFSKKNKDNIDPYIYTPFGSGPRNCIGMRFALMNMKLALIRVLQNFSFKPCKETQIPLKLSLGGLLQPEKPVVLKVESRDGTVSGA
# CYP2C9, sequence (P11712 whole entry): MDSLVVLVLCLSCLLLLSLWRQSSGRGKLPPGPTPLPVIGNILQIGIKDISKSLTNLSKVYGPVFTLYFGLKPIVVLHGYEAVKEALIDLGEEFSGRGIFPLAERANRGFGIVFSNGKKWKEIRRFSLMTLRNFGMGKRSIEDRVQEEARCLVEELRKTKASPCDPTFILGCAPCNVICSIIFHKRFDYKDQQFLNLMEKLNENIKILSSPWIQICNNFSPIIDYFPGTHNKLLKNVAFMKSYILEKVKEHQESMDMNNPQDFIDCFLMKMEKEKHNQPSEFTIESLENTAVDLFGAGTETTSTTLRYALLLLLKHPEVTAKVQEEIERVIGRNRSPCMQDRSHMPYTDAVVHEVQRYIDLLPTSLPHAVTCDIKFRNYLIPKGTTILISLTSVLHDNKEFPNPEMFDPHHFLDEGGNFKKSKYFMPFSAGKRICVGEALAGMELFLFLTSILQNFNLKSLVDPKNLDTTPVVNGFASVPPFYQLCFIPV
smiles,measurement,setting,value
CN(C)C(=O)NCCCN(C)C1=Nc2ccccc2C(CC(=O)NCc2ccc(F)cc2)N1c1ccc(C2CCCCC2)cc1 (stereo not drawn),IC50,[1],7.3 µM
same,Activity,[2],8.3%
same,Activity,[3],Tde
same,Activity,[4],Dose-dependent effect
same,fold change (FC),[5],0.64
same,fold change (FC),[6],0.79
same,fold change (FC),[7],0.45
same,fold change (FC),[8],0.7
same,fold change (FC),[9],0.43
same,fold change (FC),[10],0.55
same,fold change (FC),[11],0.35
same,Activity,[12],Dose-dependent effect
same,fold change (FC),[13],0.61
same,fold change (FC),[14],0.18
same,fold change (FC),[15],0.86
same,fold change (FC),[16],0.61
same,fold change (FC),[17],0.77
same,Activity,[18],Dose-dependent effect
same,fold change (FC),[19],0.53
same,fold change (FC),[20],0.18
same,Activity,[21],Dose-dependent effect
same,fold change (FC),[22],0.62
same,"remaining at 0.5 h, 1 µM",[23],71.2%
same,"remaining at 0.5 h, 1 µM",[24],64.3%
same,"activity at 0.25 h, 10 µM",[25],89.8%
same,"activity at 0.25 h, 10 µM",[26],78.3%
same,"activity at 0.25 h, 10 µM",[27],36.9%
same,"remaining at 0.5 h, 10 µM",[28],113%
same,"remaining at 1 h, 10 µM",[29],85.1%
same,"remaining at 1 h, 10 µM",[30],22%
same,Activity,[31],43.4%
same,Activity,[32],52.3%
same,Activity,[33],69.3%
same,Activity,[34],19.4%
same,Activity,[35],9.4%
same,Activity,[36],10.9%
same,Activity,[37],Dose-dependent effect
same,Activity,[38],8.8%
